Assay results taken from the supplement of paper PMC10307832.

Experiments:
NPK76-II-72-1 + AZD7762 = compound: CC1CC(=O)N(C2=CN=C(N=C2N1C3CCCC3)NC4=C(C=C(C=C4)C(=O)NC5CCN(CC5)C)OC)C [NPK76-II-72-1] + NC(=O)Nc1cc(-c2cccc(F)c2)sc1C(=O)N[C@H]1CCCNC1 [AZD7762] (partner 0.2 µM); test: relative viability (nuclei count vs DMSO), 5 days (fraction); higher = more cells survive
In short: (§1)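 Dosing by pin tool came one day after lung cancer cell lines were seeded in 1536-well plates, using either one drug or a fixed anchor-drug dose plus five library-drug doses (not always all listed) in √10 steps. After 5 days, nuclei were counted on 4× images. Relative viability is treated-well nuclei count divided by vehicle-well nuclei count, and values are medians of duplicate plates.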

[1] = compound: CC1CC(=O)N(C2=CN=C(N=C2N1C3CCCC3)NC4=C(C=C(C=C4)C(=O)NC5CCN(CC5)C)OC)C [NPK76-II-72-1] + CC(=O)Nc1cccc(-n2c(=O)n(C3CC3)c(=O)c3c(Nc4ccc(I)cc4F)n(C)c(=O)c(C)c32)c1 [Trametinib] (partner 0.02 µM); test: as above
In short: as §1

Cell Line | relative viability (NPK76-II-72-1 + AZD7762; first compound 0.01 µM) | relative viability (NPK76-II-72-1 + AZD7762; first compound 0.03162 µM) | relative viability (NPK76-II-72-1 + AZD7762; first compound 0.1 µM) | relative viability (NPK76-II-72-1 + AZD7762; first compound 0.3162 µM) | relative viability (NPK76-II-72-1 + AZD7762; first compound 1 µM) | relative viability ([1]; first compound 0.01 µM) | relative viability ([1]; first compound 0.03162 µM) | relative viability ([1]; first compound 0.1 µM) | relative viability ([1]; first compound 0.3162 µM) | relative viability ([1]; first compound 1 µM)
NCI-H650 | 1.13 | 0.997 | 0.97 | 0.896 | 0.995 | 1.14 | 0.996 | 0.957 | 0.997 | 1.01
NCI-H661 | – | – | – | – | – | 0.622 | 0.685 | 0.589 | 0.526 | 0.611
NCI-H727 | 0.466 | 0.67 | 0.545 | 0.537 | 0.558 | 0.352 | 0.392 | 0.341 | 0.394 | 0.395
NCI-H838 | 0.826 | 0.961 | 0.947 | 0.912 | 0.976 | 0.485 | 0.575 | 0.513 | 0.523 | 0.578
NCI-H1355 | 0.686 | 0.792 | 0.857 | 0.767 | 0.748 | 0.468 | 0.452 | 0.421 | 0.395 | 0.44
NCI-H1395 | 0.388 | 0.341 | 0.4 | 0.396 | 0.387 | 1.09 | 1.01 | 1 | 1.07 | 1.06
NCI-H1437 | 1.14 | 1.15 | 1.1 | 1.04 | 1.17 | 0.492 | 0.533 | 0.557 | 0.53 | 0.616
NCI-H1648 | 0.639 | 0.563 | 0.57 | 0.66 | 0.533 | 0.503 | 0.504 | 0.369 | 0.384 | 0.494
NCI-H1650 | – | – | – | – | – | 0.523 | 0.591 | 0.59 | 0.491 | 0.585
NCI-H1651 | 0.436 | 0.449 | 0.471 | 0.377 | 0.501 | 0.83 | 0.82 | 0.839 | 0.794 | 0.816
NCI-H1666 | 0.84 | 0.861 | 0.852 | 0.752 | 1.01 | 0.851 | 0.859 | 0.847 | 0.732 | 1.05
NCI-H1703 | 0.144 | 0.115 | 0.174 | – | 0.0937 | – | – | – | – | –
NCI-H1734 | 0.531 | 0.557 | 0.676 | 0.532 | 0.667 | 0.621 | 0.645 | 0.587 | 0.638 | 0.643
NCI-H1755 | 0.356 | 0.468 | 0.431 | 0.464 | 0.436 | 0.756 | 0.752 | 0.75 | 0.752 | 0.799
NCI-H1792 | – | 0.702 | 0.848 | 0.686 | 0.732 | – | 0.469 | 0.478 | 0.378 | 0.506
NCI-H1793 | – | 0.69 | 0.618 | 0.238 | 0.566 | – | 0.389 | 0.408 | 0.511 | 0.401
NCI-H1915 | 0.709 | 0.751 | 0.665 | 0.647 | 0.726 | 0.286 | 0.307 | 0.294 | 0.313 | 0.295
NCI-H1944 | 0.456 | 0.509 | 0.779 | 0.572 | 0.595 | 0.372 | 0.413 | 0.423 | 0.351 | 0.408
NCI-H1975 | 0.727 | 0.733 | 0.686 | 0.694 | 0.734 | 0.348 | 0.329 | 0.303 | 0.323 | 0.401

Cell Line | relative viability (NPK76-II-72-1 + AZD7762; first compound 0.01 µM) | relative viability (NPK76-II-72-1 + AZD7762; first compound 0.03162 µM) | relative viability (NPK76-II-72-1 + AZD7762; first compound 0.1 µM) | relative viability (NPK76-II-72-1 + AZD7762; first compound 0.3162 µM) | relative viability (NPK76-II-72-1 + AZD7762; first compound 1 µM) | relative viability ([1]; first compound 0.01 µM) | relative viability ([1]; first compound 0.03162 µM) | relative viability ([1]; first compound 0.1 µM) | relative viability ([1]; first compound 0.3162 µM) | relative viability ([1]; first compound 1 µM)
NCI-H1993 | 0.739 | 0.706 | 0.97 | 0.713 | 0.914 | 0.551 | 0.549 | 0.624 | 0.57 | 0.482
NCI-H2009 | – | – | – | – | – | 0.292 | 0.245 | 0.286 | 0.335 | 0.265
NCI-H2023 | – | – | – | – | – | 0.584 | 0.645 | 0.677 | 0.556 | 0.512
NCI-H2085 | 0.923 | 1.02 | 0.891 | 1 | 1.16 | 0.505 | 0.522 | 0.532 | 0.528 | 0.541
NCI-H2087 | 1.06 | 1.32 | 1.26 | 1.28 | 1.32 | 0.219 | 0.203 | 0.201 | 0.179 | 0.244
NCI-H2126 | 0.95 | 1.07 | 0.99 | 0.989 | 1.01 | 0.541 | 0.567 | 0.563 | 0.537 | 0.598
NCI-H2170 | 0.799 | 0.891 | 0.892 | 0.358 | 0.975 | 0.884 | 0.934 | 0.93 | 0.654 | 0.892
NCI-H2228 | – | – | – | – | – | 0.348 | 0.63 | 0.538 | 0.285 | 0.571
NCI-H2342 | 0.501 | 0.435 | 0.673 | 0.328 | 0.462 | 0.871 | 0.655 | 0.909 | 0.809 | 0.461
NCI-H2347 | 0.805 | 0.755 | 0.646 | 0.704 | 0.883 | 0.353 | 0.283 | 0.296 | 0.302 | 0.26
NCI-H2405 | 0.689 | 0.775 | 0.728 | 0.746 | 0.705 | 0.662 | 0.618 | 0.601 | 0.59 | 0.702
NCI-H3122 | 0.88 | 1 | 1.03 | 0.996 | 0.973 | 0.186 | 0.216 | 0.242 | 0.261 | 0.236
PC-3 [JPC-3] | 0.766 | – | 0.738 | 0.917 | 0.751 | 0.701 | – | 0.705 | 0.737 | 0.703
PC-14 | 0.356 | 0.312 | 0.337 | 0.358 | 0.344 | 0.741 | 0.848 | 0.698 | 0.678 | 0.798
RERF-LC-KJ | 0.938 | 0.931 | 0.987 | 0.763 | 1.15 | 0.874 | 0.854 | 0.838 | 0.809 | 0.946
SK-LU-1 | – | – | – | – | – | 0.454 | 0.508 | 0.526 | 0.437 | 0.473
SK-MES-1 | – | – | – | – | – | 0.543 | 0.583 | 0.489 | 0.593 | 0.555
SW 900 | 0.535 | 0.645 | 0.771 | 0.569 | 0.761 | 0.871 | 1.07 | 0.66 | 0.587 | 1.11
SW 1573 | – | – | – | – | – | 0.471 | 0.511 | 0.633 | 0.483 | 0.658
